Reference: paper PMC9532951, “Identification and characterization of a novel SNAT2 (SLC38A2) inhibitor reveals synergy with glucose transport inhibition in cancer cells” (Frontiers in Pharmacology, 2022)
Several values for one entry are separate records, joined by “and”; a condition that tells them apart may be missing. Identical values can stand only once.

Test system: SNAT1/2
Experiment: FMP assay: depolarisation by amino acid substrates in amino acid depleted HCC1806 cells
Format: cell-based, human
Conditions: for FMP response as substrate: 1 mM; for FMP fluorescence reading: amino acid 1 mM final
Description: The FLIPR Membrane Potential Blue Explorer Kit (Molecular Devices) was used to characterise inhibitors and to optimise a high-throughput compound screen. Cells were seeded at approximately 60,000 cells/well on a 96-well plate and allowed to attach and grow overnight in a cell incubator. […] Cells were then washed once with mHBSS and incubated with 50 µl of the mHBSS-resuspended FMP assay dye and 50 µl of mHBSS (with or without inhibitors) and incubated at room temperature for 30 min. The plate was then placed in an EnSpire Multimode plate reader (PerkinElmer) and four sequential measurements of fluorescence were recorded as a baseline reference. Immediately after the baseline measurements were taken, 25 µl of 5 mM glutamine dissolved in mHBSS was injected into each well and the plate was shaken orbitally for 5 s before a series of consecutive fluorescence measurements were taken. The excitation wavelength was set to 530 nm and the emission was detected at 565 nm. […] After the assay was complete, the liquid content of the plate was carefully removed, and the cell monolayer inspected to ensure it remained intact throughout the course of the assay.

For `C[C@H](N)C(=O)O` [Alanine], which “FMP response as substrate” value is on record?
The value was “strongest response”.

What about the FMP fluorescence reading (t=0 s) of the same compound?
The FMP fluorescence reading was 54596 and 53457 and 39829.

What about the FMP fluorescence reading (t=15 s) of the same compound?
The FMP fluorescence reading was 99809 and 107431 and 86655.

What about the FMP fluorescence reading (t=30 s) of the same compound?
The FMP fluorescence reading was 104988 and 111613 and 89183.

What about the FMP fluorescence reading (t=45 s) of the same compound?
The FMP fluorescence reading was 107389 and 114043 and 90927.

What about the FMP fluorescence reading (t=60 s) of the same compound?
Its FMP fluorescence reading is 109154 and 114952 and 91569.

What about the FMP fluorescence reading (t=75 s) of the same compound?
Its FMP fluorescence reading is 110049 and 115127 and 91618.

And the FMP fluorescence reading (t=90 s)?
Its FMP fluorescence reading is 110411 and 114906 and 91021.

And the FMP fluorescence reading (t=105 s)?
Its FMP fluorescence reading is 110237 and 114204 and 90013.

And the FMP fluorescence reading (t=120 s)?
Its FMP fluorescence reading is 109638 and 112786 and 88869.

And the FMP fluorescence reading (t=135 s)?
The FMP fluorescence reading was 108521 and 111868 and 87878.

What about the FMP fluorescence reading (t=-15 s) of the same compound?
Its FMP fluorescence reading is 54286 and 53641 and 39860.

And the FMP fluorescence reading (t=-30 s, replicates 1-3)?
The FMP fluorescence reading was 53991 and 53679 and 39761.

With `CC(C)C[C@H](N)C(=O)O` [Leucine] as the compound, how does the “FMP response as substrate” value read?
Its value is “weak signal”.

What about the FMP fluorescence reading (t=0 s) of the same compound?
The FMP fluorescence reading was 61522 and 51455 and 48802.

What about the FMP fluorescence reading (t=15 s) of the same compound?
The FMP fluorescence reading was 88098 and 66521 and 74458.

And the FMP fluorescence reading (t=30 s)?
Its FMP fluorescence reading is 89784 and 72558 and 75976.

What about the FMP fluorescence reading (t=45 s) of the same compound?
Its FMP fluorescence reading is 91395 and 75844 and 77135.

And the FMP fluorescence reading (t=60 s)?
The FMP fluorescence reading was 92447 and 78186 and 77607.

And the FMP fluorescence reading (t=75 s)?
The FMP fluorescence reading was 93485 and 79454 and 77906.

What about the FMP fluorescence reading (t=90 s) of the same compound?
The FMP fluorescence reading was 93344 and 79903 and 78344.

And the FMP fluorescence reading (t=105 s)?
Its FMP fluorescence reading is 93716 and 80571 and 78223.

What about the FMP fluorescence reading (t=120 s) of the same compound?
Its FMP fluorescence reading is 93656 and 80831 and 77995.

What about the FMP fluorescence reading (t=135 s) of the same compound?
Its FMP fluorescence reading is 93514 and 80690 and 77322.

And the FMP fluorescence reading (t=-15 s)?
The FMP fluorescence reading was 61387 and 51586 and 49166.

What about the FMP fluorescence reading (t=-30 s, replicates 1-3) of the same compound?
Its FMP fluorescence reading is 61314 and 51367 and 48860.

`NCC(=O)O` [Glycine] was tested. Which “FMP response as substrate” value did it give?
Its value is “strongest response”.

And the FMP fluorescence reading (t=0 s)?
The FMP fluorescence reading was 44899 and 49024 and 38114.

And the FMP fluorescence reading (t=15 s)?
The FMP fluorescence reading was 85173 and 99097 and 84032.

What about the FMP fluorescence reading (t=30 s) of the same compound?
Its FMP fluorescence reading is 91215 and 103676 and 87874.

What about the FMP fluorescence reading (t=45 s) of the same compound?
The FMP fluorescence reading was 94947 and 105684 and 90110.

And the FMP fluorescence reading (t=60 s)?
The FMP fluorescence reading was 97113 and 106636 and 90762.

And the FMP fluorescence reading (t=75 s)?
Its FMP fluorescence reading is 98961 and 107619 and 91458.

What about the FMP fluorescence reading (t=90 s) of the same compound?
Its FMP fluorescence reading is 100150 and 108044 and 90972.

What about the FMP fluorescence reading (t=105 s) of the same compound?
The FMP fluorescence reading was 99878 and 107571 and 90946.

What about the FMP fluorescence reading (t=120 s) of the same compound?
The FMP fluorescence reading was 99987 and 106851 and 90990.

What about the FMP fluorescence reading (t=135 s) of the same compound?
Its FMP fluorescence reading is 99765 and 106361 and 89148.

What about the FMP fluorescence reading (t=-15 s) of the same compound?
Its FMP fluorescence reading is 44724 and 48839 and 38339.

And the FMP fluorescence reading (t=-30 s, replicates 1-3)?
The FMP fluorescence reading was 44368 and 48981 and 38101.

Which results are given for `N=C(N)NCCC[C@H](N)C(=O)O` [Arginine]?
FMP fluorescence reading (t=0 s): 57601 and 55451 and 44145; FMP fluorescence reading (t=15 s): 59785 and 58453 and 46579; FMP fluorescence reading (t=30 s): 60283 and 58803 and 46849; FMP fluorescence reading (t=45 s): 60859 and 58896 and 47284; FMP fluorescence reading (t=60 s): 61207 and 59368 and 47582; FMP fluorescence reading (t=75 s): 60824 and 59447 and 47575; FMP fluorescence reading (t=90 s): 61207 and 59194 and 47872; FMP fluorescence reading (t=105 s): 61703 and 59566 and 47735; FMP fluorescence reading (t=120 s): 61529 and 59552 and 47812; FMP fluorescence reading (t=135 s): 61459 and 60027 and 47987; FMP fluorescence reading (t=-15 s): 57812 and 55789 and 44423; FMP fluorescence reading (t=-30 s, replicates 1-3): 57675 and 55602 and 44293

How did the FMP fluorescence reading (t=0 s) turn out when `N[C@@H](CCC(=O)O)C(=O)O` [Glutamate] was run?
The FMP fluorescence reading was 60032 and 51875 and 43598.

What about the FMP fluorescence reading (t=15 s) of the same compound?
The FMP fluorescence reading was 69207 and 54669 and 51909.

What about the FMP fluorescence reading (t=30 s) of the same compound?
Its FMP fluorescence reading is 69328 and 57256 and 51957.

What about the FMP fluorescence reading (t=45 s) of the same compound?
Its FMP fluorescence reading is 69976 and 58306 and 52382.

What about the FMP fluorescence reading (t=60 s) of the same compound?
The FMP fluorescence reading was 70448 and 59203 and 52416.

And the FMP fluorescence reading (t=75 s)?
Its FMP fluorescence reading is 70747 and 59679 and 52622.

What about the FMP fluorescence reading (t=90 s) of the same compound?
The FMP fluorescence reading was 70473 and 59687 and 53012.

What about the FMP fluorescence reading (t=105 s) of the same compound?
Its FMP fluorescence reading is 70925 and 60367 and 52735.

And the FMP fluorescence reading (t=120 s)?
Its FMP fluorescence reading is 71220 and 60249 and 53084.

And the FMP fluorescence reading (t=135 s)?
The FMP fluorescence reading was 71259 and 60330 and 52832.

What about the FMP fluorescence reading (t=-15 s) of the same compound?
The FMP fluorescence reading was 59967 and 51788 and 43666.

What about the FMP fluorescence reading (t=-30 s, replicates 1-3) of the same compound?
Its FMP fluorescence reading is 60239 and 51751 and 43455.
